{"source": "patent US20080025918A1", "about": "“Invisible light fluorescent platelets for intraoperative detection of vascular thrombosis” (Beth Israel Deaconess Medical Center, Inc., priority 2006, published 2008)", "key": {"[1]": {"assay": "Spectral characteristics and relative fluorescence yield of IR-786 (absorbance and fluorescence measurements)", "type": "physicochemical", "conditions": "for Relative Fluorescence Yield: samples matched for absorbance, 655 nm excitation", "method": "Absorbance and fluorescence measurements were performed in 1 cm quartz cuvettes as described previously (Ohnishi et al., Mol. Imaging., 2005; 4(3):172-181). For measurement of relative fluorescence yield, IR-786 samples in Tyrodes-HEPES, methanol, or concentrated in washed platelets were matched for absorbance (0.1 A units) and area under the fluorescence emission curve calculated after excitation with a 5 mW 655 nm laser diode."}, "resting platelets": {"system": "resting platelets", "assay": "P-selectin surface expression of resting loaded platelets", "type": "cell-based, human", "conditions": "resting platelets loaded with 2 μM IR-786"}, "washed pig platelets": {"system": "washed pig platelets", "assay": "Pig platelet aggregation (aggregometry)", "type": "cell-based", "conditions": "washed pig platelets incubated 30 minutes with 2 μM IR-786", "method": "To ensure that platelets loaded with 2 μM IR-786 retained function, the ability of IR-786-loaded platelets to aggregate in response to agonists was assessed. Loaded and non-loaded human platelets, resuspended at a density of 4×10^8 cells/mL in modified Tyrodes-HEPES buffer, were stimulated with agonists in siliconized glass tubes in an optical aggregometer (Chronolog, Havertown, Pa.). Assays were performed at 37° C. and with constant stirring. Aggregation was monitored by measurement of optical density of the platelet suspension (Croce et al., J. Biol. Chem., 1999; 274(51):36321-36327)\nThe ability of pig platelets to aggregate following incubation with IR-786 was also tested, using aggregometry as described above."}, "[2]": {"conditions": "following incorporation into platelets"}}}
{"smiles": "CN1C(=CC=C2CCCC(C=CC3=[N+](C)c4ccccc4C3(C)C)=C2Cl)C(C)(C)c2ccccc21.[O-][Cl+3]([O-])([O-])[O-]", "note": "[IR-786]", "values": [{"measurement": "emission maximum", "setting": "[1]; [2]", "value": 804, "unit": "nm"}, {"measurement": "excitation maximum", "setting": "[1]; [2]", "value": 788, "unit": "nm"}, {"measurement": "Peak Absorbance", "setting": "[1]; in Methanol", "value": 775, "unit": "nm"}, {"measurement": "Peak Emission", "setting": "[1]; in Methanol", "value": 797, "unit": "nm"}, {"measurement": "Relative Fluorescence Yield", "setting": "[1]; in Methanol", "value": 9.5}, {"measurement": "Peak Absorbance", "setting": "[1]; in Platelets", "value": 788, "unit": "nm"}, {"measurement": "Peak Emission", "setting": "[1]; in Platelets", "value": 804, "unit": "nm"}, {"measurement": "Relative Fluorescence Yield", "setting": "[1]; in Platelets", "value": 1.0}, {"measurement": "Peak Absorbance", "setting": "[1]; in Tyrode's-HEPES", "value": 769, "unit": "nm"}, {"measurement": "Peak Emission", "setting": "[1]; in Tyrode's-HEPES", "value": 789, "unit": "nm"}, {"measurement": "Relative Fluorescence Yield", "setting": "[1]; in Tyrode's-HEPES", "value": 1.4}, {"measurement": "emission maximum", "setting": "[1]; in aqueous buffer", "value": 788.8, "unit": "nm"}, {"measurement": "excitation maximum", "setting": "[1]; in aqueous buffer", "value": 769.3, "unit": "nm"}, {"measurement": "P-selectin surface expression (platelet activation)", "setting": "resting platelets", "value": "no significant P-selectin surface expression"}, {"measurement": "aggregation in response to thrombin or CRP", "setting": "washed pig platelets", "value": "aggregated normally"}]}
